This is an account of results in ChEMBL document CHEMBL4392835, “New heteroaryl carbamates: Synthesis and biological screening in vitro and in mammalian cells of wild-type and mutant HIV-protease inhibitors” (Bioorg Med Chem, 2019).

The source made the active and inactive calls. The calls are words filed in the database; no cut-off is given here.

Series [1] can be described thus: Cytotoxicity in HEK293 cells assessed as reduction in cell viability after 24 hrs by MTT assay. The class given is cell-based. As to conditions: human.
Series [2] has as its target Protease (Human immunodeficiency virus 1) (UniProt Q9YQ12). Briefly: Inhibition of GFP-tagged HIV1 protease transfected in HEK293 cells at 30 uM incubated for 24 hrs by fluorescence microscopy. It counts as cell-based.
Series [3] is described as follows: Inhibition of HIV protease assessed as reduction in enzyme-mediated substrate hydrolysis using Abz-Thr-Ile-Nle-Phe(NO2)-Gln-Arg fluorogenic substrate. Also noted: species or system Human immunodeficiency virus.
Series [4] deals with Protease (Human immunodeficiency virus 1) (UniProt Q9YQ12). The experiment in a line: Inhibition of GFP-tagged HIV1 protease transfected in HEK293 cells at 10 to 30 uM incubated for 24 hrs by FACS analysis. It counts as cell-based.
Series [5] has as its system Protease (Human immunodeficiency virus 1), Q9YQ12 [V82A]. Briefly: Inhibition of GFP-tagged HIV1 protease V82A mutant transfected in HEK293 cells at 10 uM incubated for 24 hrs by fluorescence microscopy. The class given is cell-based.
The nature of series [6]: Intrinsic clearance in human liver microsomes assessed per mg protein. It counts as ADME, Microsome. As to conditions: read-out: CLH.
Series [7] deals with Protease (Human immunodeficiency virus 1) (UniProt Q9YQ12). Briefly: Inhibition of GFP-tagged HIV1 protease transfected in HEK293 cells at 10 uM incubated for 24 hrs by FACS analysis. It counts as cell-based.
Series [8] relates to Protease (Human immunodeficiency virus 1), Q9YQ12 [V32I]. The experiment in a line: Inhibition of GFP-tagged HIV1 protease V32I mutant transfected in HEK293 cells at 10 uM incubated for 24 hrs by fluorescence microscopy. The class given is cell-based.
A short description of series [9]: Cytotoxicity in HEK293 cells assessed as reduction in cell viability by MTT assay. The class given is cell-based. As to conditions: human.
Series [10] in a line: Intrinsic clearance in rat liver microsomes assessed per mg protein. It counts as ADME, Microsome. As to conditions: read-out: CLH.
For series [11], the system named is Protease (Human immunodeficiency virus 1), Q9YQ12 [V32I]. The experiment in a line: Inhibition of GFP-tagged HIV1 protease V32I mutant transfected in HEK293 cells at 30 uM incubated for 24 hrs by fluorescence microscopy. The class given is cell-based.
The subject of series [12] is Protease (Human immunodeficiency virus 1), Q9YQ12 [V82A]. Briefly: Inhibition of GFP-tagged HIV1 protease V82A mutant transfected in HEK293 cells at 30 uM incubated for 24 hrs by fluorescence microscopy. The class given is cell-based.
Series [13] concerns the target Protease (Human immunodeficiency virus 1) (UniProt Q9YQ12). Briefly: Inhibition of GFP-tagged HIV1 protease transfected in HEK293 cells at 10 uM incubated for 24 hrs by fluorescence microscopy. It counts as cell-based.
For series [14] the target is unchanged. Briefly: Inhibition of GFP-tagged HIV1 protease transfected in HEK293 cells at 30 uM incubated for 24 hrs by FACS analysis. The class given is cell-based.

Chain of Protease (Human immunodeficiency virus 1) (Q9YQ12 as listed by the source): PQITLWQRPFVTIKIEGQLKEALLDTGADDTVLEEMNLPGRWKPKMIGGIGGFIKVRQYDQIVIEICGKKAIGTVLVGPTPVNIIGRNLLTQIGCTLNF
Chain of Protease (Human immunodeficiency virus 1), Q9YQ12 [V32I] (Q9YQ12 entry or part of it V32I): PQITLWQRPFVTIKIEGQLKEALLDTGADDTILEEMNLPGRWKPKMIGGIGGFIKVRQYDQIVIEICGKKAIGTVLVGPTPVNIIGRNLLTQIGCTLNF
Chain of Protease (Human immunodeficiency virus 1), Q9YQ12 [V82A] (Q9YQ12 entry or part of it V82A): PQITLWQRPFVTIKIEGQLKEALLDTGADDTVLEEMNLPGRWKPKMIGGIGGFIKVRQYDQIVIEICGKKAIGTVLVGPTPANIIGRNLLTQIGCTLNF

As to `COc1ccc(S(=O)(=O)N(CC(C)C)C[C@@H](O)CNC(=O)Oc2ccc3occc3c2)cc1`, the CC50 at 24 h in [1] was greater than 60 µM. The “inhibition call (active/not active)” value in [2] is “inactive”. In series [3], the concentration for half-maximal inhibition (IC50) amounted to 15.4 µM. Also, the inhibition entry in series [4] is “inactive”.
Turning to `COc1ccc(S(=O)(=O)N(CC(C)C)C[C@@H](O)CNC(=O)Oc2ccc3[nH]ccc3c2)cc1`, the cytotoxic concentration (CC50) at 24 h in [1] is greater than 60 µM. In addition, the “inhibition call (active/not active)” value in series [2] was “inactive”. For the same molecule, in [3], the IC50 turned out to be 13.4 µM. Moreover, the inhibition entry in [4] was “inactive”.
For the molecule `COc1ccc(S(=O)(=O)N(CC(C)C)C[C@@H](O)[C@H](Cc2ccccc2)NC(=O)Oc2ccc3[nH]ccc3c2)cc1`, the inhibition entry in series [5], in series [7], in [8] and in series [4] was “Active” each time. In addition, in series [1], the CC50 at 24 h was greater than 60 µM. The microsomal CLint in series [6] came to 548 µL/min/mg; in series [10] it was 522 µL/min/mg. Also, in series [2], the “inhibition call (active/not active)” value is “Active”. Further, the IC50 in series [3] was no more than 0.0006 µM. For the same molecule, in [9], the cytotoxic concentration (CC50) was found to be 2.8 µM.
Turning to `COc1ccc(S(=O)(=O)N(CC(C)C)C[C@@H](O)[C@H](Cc2ccccc2)NC(=O)Oc2ccc3sccc3c2)cc1`, the half-maximal cytotoxic concentration (CC50) at 24 h in [1] is greater than 60 µM. Besides, the “inhibition call (active/not active)” value in series [2] was “inactive”. Further, the IC50 in [3] was determined as 0.0108 µM. Moreover, the inhibition entry in series [4] was “inactive”.
`COc1ccc(S(=O)(=O)N(CC(C)C)C[C@@H](O)[C@H](Cc2ccccc2)NC(=O)Oc2ccc3occc3c2)cc1`: the CC50 at 24 h in series [1] was greater than 60 µM. In addition, the microsomal CLint in series [6] is 121 µL/min/mg; in series [10], 26.8 µL/min/mg. Moreover, the inhibition result in [11], in series [12], in series [13], in [14] and in [4] was “Active” in each case. The “inhibition call (active/not active)” value in [2] is “Active”. Further, the IC50 in [3] is no more than 0.0006 µM. In addition, the half-maximal cytotoxic concentration (CC50) in [9] is greater than 100 µM.
With `COc1ccc(S(=O)(=O)N(CC(C)C)C[C@@H](O)CNC(=O)Oc2ccc3sccc3c2)cc1`, the cytotoxic concentration (CC50) at 24 h in series [1] is greater than 60 µM. In addition, the “inhibition call (active/not active)” value in [2] was “inactive”. In addition, the IC50 in [3] came to 0.049 µM. Further, the half-maximal cytotoxic concentration (CC50) in series [9] was greater than 100 µM. In series [4], the inhibition entry is “inactive”.
Take `CC(C)CN(C[C@@H](O)[C@H](Cc1ccccc1)NC(=O)O[C@H]1CO[C@H]2OCC[C@H]21)S(=O)(=O)c1ccc(N)cc1`: the “inhibition call (active/not active)” value in [2] was “Active”. In addition, in series [4], the inhibition entry was “Active”.
